This note sets out measurements from ChEMBL document CHEMBL5550218, “Structural Insights into Protein-Inhibitor Interactions in Human Tryptophan Dioxygenase” (J Med Chem, 2024).

This assay has as its target Tryptophan 2,3-dioxygenase (Homo sapiens, UniProt P48775).

Sequence of Tryptophan 2,3-dioxygenase (P48775 whole entry): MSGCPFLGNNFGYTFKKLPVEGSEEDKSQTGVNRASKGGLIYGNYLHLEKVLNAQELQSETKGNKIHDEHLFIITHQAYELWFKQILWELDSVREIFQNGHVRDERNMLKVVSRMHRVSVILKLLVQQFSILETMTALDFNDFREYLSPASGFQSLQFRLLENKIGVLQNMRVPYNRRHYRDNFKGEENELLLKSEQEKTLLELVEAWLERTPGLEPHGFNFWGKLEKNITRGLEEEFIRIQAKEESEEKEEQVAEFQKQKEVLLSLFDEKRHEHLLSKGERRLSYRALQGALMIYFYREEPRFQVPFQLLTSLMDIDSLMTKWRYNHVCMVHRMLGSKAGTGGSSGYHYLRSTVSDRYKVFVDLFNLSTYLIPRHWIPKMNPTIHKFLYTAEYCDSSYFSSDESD

Broadly, the IC50 is the concentration at which inhibition is half-maximal. A high value points to weaker potency. Take `O=C1CC(c2c[nH]c3ccc(F)cc23)C(=O)N1` (stereo unspecified) [PF-06840003]: half-maximal inhibition (IC50) required 424 µM.
